According to patent US20070213394A1 (priority 2004, published 2007):
Read-outs that look alike come from different tables or passages of the source.

Tests used:
[1] = biological target: T1, human kappa opioid receptor (Homo sapiens, UniProt P41145); assay: biochemical; format: binding
T1 construct: expressed in transfected cells; host or cells: Chinese hamster ovary cells (CHO-hKOR), membranes

[2] = biological target: T1, human kappa opioid receptor; assay: biochemical; conditions: for Emax: 1 h, read-out: Efficacy

T1 sequence (P41145 whole entry): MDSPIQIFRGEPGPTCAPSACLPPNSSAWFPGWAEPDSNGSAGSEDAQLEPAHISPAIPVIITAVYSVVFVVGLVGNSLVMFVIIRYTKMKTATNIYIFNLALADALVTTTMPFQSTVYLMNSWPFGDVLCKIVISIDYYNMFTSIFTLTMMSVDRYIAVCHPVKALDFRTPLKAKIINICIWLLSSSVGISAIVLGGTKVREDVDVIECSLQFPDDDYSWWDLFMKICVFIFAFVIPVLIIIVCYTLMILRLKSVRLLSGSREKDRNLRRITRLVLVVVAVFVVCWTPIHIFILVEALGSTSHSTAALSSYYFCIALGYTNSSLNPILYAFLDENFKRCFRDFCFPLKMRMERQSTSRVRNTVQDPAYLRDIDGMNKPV

Compound | Emax [2] [%] | Ki [1] [nM] | also measured
2-(N,N-dimethylamino)-salvinorin [Compound 19] |  |  | Ki ([1]; read-out: Ki): 90.9 ± 2.5 nM; EC50 ([2]; read-out: EC50): 343 ± 12 nM
8-epi-O-demethyl-18-deoxysalvinorin A [C8-epi-compound 222] |  |  | Ki ([1]; read-out: Ki): 1000 ± 269 nM
CNC(=O)C1CC(OC(C)=O)C(=O)C2C1(C)CCC1C(=O)OC(c3ccoc3)CC12C (stereo not drawn) [C8-epi-compound 219, 8-epi-C(4)-N-methylamide salvinorin A] |  |  | Ki ([1]; read-out: Ki): 1390 ± 218 nM
CNCC1CC(OC(C)=O)C(=O)C2C1(C)CCC1C(=O)OC(c3ccoc3)CC12C (stereo not drawn) [C8-epi-compound 224, 8-epi-4-(N-methylamino)methyl salvinorin A] |  |  | Ki ([1]; read-out: Ki): > 10000 nM
CCNCC1CC(OC(C)=O)C(=O)C2C1(C)CCC1C(=O)OC(c3ccoc3)CC12C (stereo not drawn) [C8-epi-compound 225, 8-epi-4-(N-ethylamino)methyl salvinorin A] |  |  | Ki ([1]; read-out: Ki): > 10000 nM
CC(=O)OC1CC(CN(C)C)C2(C)CCC3C(=O)OC(c4ccoc4)CC3(C)C2C1=O (stereo not drawn) [C8-epi-compound 226, 8-epi-4-(N,N-dimethylamino)methyl salvinorin A] |  |  | Ki ([1]; read-out: Ki): > 10000 nM
COC(=O)[C@@H]1C[C@H](O)C(=O)C2[C@@]1(C)CC[C@H]1C(=O)O[C@H](c3ccoc3)C[C@]21C (stereo partly shown) [Compound 1, salvinorin B] | 98 |  | 
CCC(=O)O[C@H]1C[C@@H](C(=O)OC)[C@]2(C)CC[C@H]3C(=O)O[C@H](c4ccoc4)C[C@]3(C)C2C1=O (stereo partly shown) [Compound 2, 2-propionyl-salvinorin B] | 94 | 7.2 ± 0.5 | EC50 [2]: 20.4 ± 3.4 nM
CCCC(=O)O[C@H]1C[C@@H](C(=O)OC)[C@]2(C)CC[C@H]3C(=O)O[C@H](c4ccoc4)C[C@]3(C)C2C1=O (stereo partly shown) [Compound 3, 2-butyryl-salvinorin B] | 97 | 4.9 ± 0.6 | EC50 [2]: 9.9 ± 0.6 nM
COC(=O)[C@@H]1C[C@H](OC)C(=O)C2[C@@]1(C)CC[C@H]1C(=O)O[C@H](c3ccoc3)C[C@]21C (stereo partly shown) [Compound 4, 2-methoxy-salvinorin B] | 98 | 220 ± 12 | EC50 [2]: 389 ± 76 nM
COC(=O)[C@@H]1C[C@H](O)C(=O)C2[C@@]3(C)C[C@@H](c4ccoc4)OC(=O)[C@H]3CC[C@]21C (stereo partly shown) [Compound 5, Episalvinorin B] | 102 |  | 
COC(=O)[C@@H]1C[C@H](OC(N)=O)C(=O)C2[C@@]1(C)CC[C@H]1C(=O)O[C@H](c3ccoc3)C[C@]21C (stereo partly shown) [Compound 9, 2-(O-formamide)-salvinorin B] | 99 | 3.2 ± 0.2 | EC50 [2]: 6.2 ± 1.4 nM
CNC(=O)O[C@H]1C[C@@H](C(=O)OC)[C@]2(C)CC[C@H]3C(=O)O[C@H](c4ccoc4)C[C@]3(C)C2C1=O (stereo partly shown) [Compound 10, 2-(O—(N-methyl)formamide)-salvinorin B] | 81 | 83 ± 9 | EC50 [2]: 201 ± 10 nM
CN[C@@H]1C[C@@H](C(=O)OC)[C@]2(C)CC[C@H]3C(=O)O[C@H](c4ccoc4)C[C@]3(C)C2C1=O (stereo partly shown) [Compound 11, 2-(N-methylamino)-salvinorin] |  | > 10000 | 
COC(=O)[C@@H]1C[C@H](OC(=O)CN(C)C)C(=O)C2[C@@]1(C)CC[C@H]1C(=O)O[C@H](c3ccoc3)C[C@]21C (stereo partly shown) [Compound 12, 2-(2′-(N,N-dimethylamino)acetate) salvinorin B] |  | > 10000 | 
CCCCO[C@H]1C[C@@H](C(=O)OC)[C@]2(C)CC[C@H]3C(=O)O[C@H](c4ccoc4)C[C@]3(C)C2C1=O (stereo partly shown) [Compound 13, 2-n-butoxy-salvinorin B] |  | 35.8 ± 5.1 | EC50 [2]: 104 ± 17 nM
C=CCO[C@H]1C[C@@H](C(=O)OC)[C@]2(C)CC[C@H]3C(=O)O[C@H](c4ccoc4)C[C@]3(C)C2C1=O (stereo partly shown) [Compound 14, 2-allyloxy-salvinorin B] | 106 | 60.1 ± 5.1 | EC50 [2]: 145 ± 33 nM
CCO[C@H]1C[C@@H](C(=O)OC)[C@]2(C)CC[C@H]3C(=O)O[C@H](c4ccoc4)C[C@]3(C)C2C1=O (stereo partly shown) [Compound 15, 2-ethoxy-salvinorin B] | 103 |  | 
CCCO[C@H]1C[C@@H](C(=O)OC)[C@]2(C)CC[C@H]3C(=O)O[C@H](c4ccoc4)C[C@]3(C)C2C1=O (stereo partly shown) [Compound 16, 2-propoxy-salvinorin B] | 100 | 28.7 ± 3 | EC50 [2]: 67.4 ± 9.9 nM
COC(=O)[C@@H]1C[C@H](OCc2ccccc2)C(=O)C2[C@@]1(C)CC[C@H]1C(=O)O[C@H](c3ccoc3)C[C@]21C (stereo partly shown) [Compound 17, 2-benzyloxy-salvinorin B] |  | 75.7 ± 5.9 | EC50 [2]: 161 ± 14 nM
CCN[C@@H]1C[C@@H](C(=O)OC)[C@]2(C)CC[C@H]3C(=O)O[C@H](c4ccoc4)C[C@]3(C)C2C1=O (stereo partly shown) [Compound 18, 2-(N-ethylamino)-salvinorin] |  | 28.9 ± 1 | EC50 [2]: 68.9 ± 5.3 nM
CCNC(=O)O[C@H]1C[C@@H](C(=O)OC)[C@]2(C)CC[C@H]3C(=O)O[C@H](c4ccoc4)C[C@]3(C)C2C1=O (stereo partly shown) [Compound 20, 2-(O—(N-ethyl)formamide)-salvinorin B] |  | 462 ± 20 | EC50 [2]: > 1000 nM
COC(=O)[C@@H]1C[C@H](OC(=O)[C@H](C)N)C(=O)C2[C@@]1(C)CC[C@H]1C(=O)O[C@H](c3ccoc3)C[C@]21C (stereo partly shown) [Compound 25] |  | > 10000 | 
COC(=O)[C@@H]1C[C@H](OC(=O)CNC(C)=O)C(=O)C2[C@@]1(C)CC[C@H]1C(=O)O[C@H](c3ccoc3)C[C@]21C (stereo partly shown) [Compound 26] |  | > 10000 | 
COC(=O)[C@@H]1C[C@H](OC(=O)CN(C)C)C(=O)C2[C@@]1(C)CC[C@H]1C(=O)O[C@H](c3ccoc3)C[C@]21C (stereo partly shown) [Compound 27] |  | > 10000 | 
CCOC(=O)C1CC(OC(C)=O)C(=O)C2C1(C)CCC1C(=O)OC(c3ccoc3)CC12C (stereo not shown) [Compound 33] |  | > 10000 | 

Compound | Emax [2] [%] | Ki [1] [nM] | also measured
CCCCOC(=O)C1CC(OC(C)=O)C(=O)C2C1(C)CCC1C(=O)OC(c3ccoc3)CC12C (stereo not shown) [Compound 35] |  | > 10000 | 
CC(=O)OC1CC(C(=O)OCc2ccccc2)C2(C)CCC3C(=O)OC(c4ccoc4)CC3(C)C2C1=O (stereo not shown) [Compound 37] |  | > 10000 | 
CCCCCOC(=O)C1CC(OC(C)=O)C(=O)C2C1(C)CCC1C(=O)OC(c3ccoc3)CC12C (stereo not shown) [Compound 40] |  | > 10000 | 
CCCCCCCCOC(=O)C1CC(OC(C)=O)C(=O)C2C1(C)CCC1C(=O)OC(c3ccoc3)CC12C (stereo not shown) [Compound 42] |  | > 10000 | 
C#CCCOC(=O)C1CC(OC(C)=O)C(=O)C2C1(C)CCC1C(=O)OC(c3ccoc3)CC12C (stereo not shown) [Compound 53] |  | > 10000 | 
CCCOC(=O)C1CC(OC(C)=O)C(=O)C2C1(C)CCC1C(=O)OC(c3ccoc3)CC12C (stereo not shown) [Compound 54] |  | > 10000 | 
C=CCOC(=O)C1CC(OC(C)=O)C(=O)C2C1(C)CCC1C(=O)OC(c3ccoc3)CC12C (stereo not shown) [Compound 56] |  | > 10000 | 
COC(=O)[C@@H]1C[C@@H](N(C)C(C)=O)C(=O)C2[C@@]1(C)CC[C@H]1C(=O)O[C@H](c3ccoc3)C[C@]21C (stereo partly drawn) [Compound 80, 2-epi-(N-methylacetamide)-salvinorin] | 106 |  | 
CC(=O)OC1CC(C(=O)NC(C)C(=O)OCc2ccccc2)C2(C)CCC3C(=O)OC(c4ccoc4)CC3(C)C2C1=O (stereo not shown) [Compound 99] |  | > 10000 | 
CC(=O)OC1CC(C(=O)N2CCCC2C(=O)OCc2ccccc2)C2(C)CCC3C(=O)OC(c4ccoc4)CC3(C)C2C1=O (stereo not shown) [Compound 104] |  | > 10000 | 
CC(=O)OC1CC(C(=O)NC(Cc2cnc[nH]2)C(=O)OCc2ccccc2)C2(C)CCC3C(=O)OC(c4ccoc4)CC3(C)C2C1=O (stereo not shown) [Compound 105] |  | > 10000 | 
CCC(=O)OC1CC(C(=O)OC)C2(C)CCC3C(=O)OC(c4ccoc4)CC3(C)C2C1=O (stereo not drawn) [Compound 203b, 2-epi-salvinorin B propionate] |  | 641 ± 122 | 
CCCC(=O)OC1CC(C(=O)OC)C2(C)CCC3C(=O)OC(c4ccoc4)CC3(C)C2C1=O (stereo not drawn) [Compound 204b, 2-epi-salvinorin B butyrate] |  | 665 ± 100 | 
COC(=O)C1CC(OC)C(=O)C2C1(C)CCC1C(=O)OC(c3ccoc3)CC12C (stereo not drawn) [Compound 205b, 2-epi-(O-methyl)-salvinorin B] |  | > 10000 | 
CCOC1CC(C(=O)OC)C2(C)CCC3C(=O)OC(c4ccoc4)CC3(C)C2C1=O (stereo not drawn) [Compound 206b, 2-epi-(O-ethyl)-salvinorin B] |  | > 10000 | 
CCC(=O)N[C@H]1C[C@@H](C(=O)OC)[C@]2(C)CC[C@H]3C(=O)O[C@H](c4ccoc4)C[C@]3(C)[C@H]2C1=O [Compound 213a, 2-(propionamide)-salvinorin] | 109 |  | 
CCC(=O)N[C@@H]1C[C@@H](C(=O)OC)[C@]2(C)CC[C@H]3C(=O)O[C@H](c4ccoc4)C[C@]3(C)[C@H]2C1=O [Compound 213b, 2-epi-(propionamide)-salvinorin] | 102 |  | 
CCC(=O)N(C)C1CC(C(=O)OC)C2(C)CCC3C(=O)OC(c4ccoc4)CC3(C)C2C1=O (stereo not shown) [Compound 215a, 2-(N-methylpropionamide)-salvinorin] |  | 1.6 ± 0.1 | 
CCN(C(C)=O)[C@H]1C[C@@H](C(=O)OC)[C@]2(C)CC[C@H]3C(=O)O[C@H](c4ccoc4)C[C@]3(C)[C@H]2C1=O [Compound 216a, 2-(N-ethylacetamide)-salvinorin] | 104 |  | 
CCN(C(C)=O)[C@@H]1C[C@@H](C(=O)OC)[C@]2(C)CC[C@H]3C(=O)O[C@H](c4ccoc4)C[C@]3(C)[C@H]2C1=O [Compound 216b, 2-epi-(N-ethylacetamide)-salvinorin] | 95 |  | 
CCC(=O)N(CC)[C@H]1C[C@@H](C(=O)OC)[C@]2(C)CC[C@H]3C(=O)O[C@H](c4ccoc4)C[C@]3(C)[C@H]2C1=O [Compound 217a, 2-(N-ethylpropionamide)-salvinorin] | 100 |  | 
CCC(=O)N(CC)[C@@H]1C[C@@H](C(=O)OC)[C@]2(C)CC[C@H]3C(=O)O[C@H](c4ccoc4)C[C@]3(C)[C@H]2C1=O [Compound 217b, 2-epi-(N-ethylpropionamide)-salvinorin] | 96 |  | 
CNC(=O)[C@@H]1C[C@H](OC(C)=O)C(=O)[C@H]2[C@@]1(C)CC[C@H]1C(=O)O[C@H](c3ccoc3)C[C@]21C [Compound 219, C(4)-N-methylamide salvinorin A] |  |  | Ki ([1]; read-out: Ki): > 1000 nM
CC(=O)OC1CC(C(=O)N(C)C)C2(C)CCC3C(=O)OC(c4ccoc4)CC3(C)C2C1=O (stereo not shown) [Compound 221, C(4)-N,N-dimethylamide salvinorin A] |  | > 10000 | 
CC(=O)O[C@H]1C[C@@H](CO)[C@]2(C)CCC3C(=O)O[C@H](c4ccoc4)C[C@]3(C)[C@H]2C1=O (stereo partly shown) [Compound 222, O-demethyl-18-deoxysalvinorin A] |  | > 10000 | 
